# Test results reported in US11666600B2, “Methods for culturing and/or differentiating hematopoietic stem cells into progenitors and uses thereof” (HEMA-QUEBEC, priority 2015, dated 2023).
# Assays:
# [1] = system: Human CB CD34+-enriched cells; assay: Culture of CB CD34+-enriched cells in erythroid differentiation medium; format: cell-based; settings: 14 days
# Protocol: Human cord blood (CB) was collected after obtaining written informed consent from donors, following our institutional Research Ethics Committee guidelines. Mononuclear cells (MNCs) were first separated over a Ficoll-Hypaque™ density gradient (GE Healthcare), then cryopreserved at −180° C. in Cryostor CS10™ medium ([…] Technologies). Thawed MNCs from six to eight CB were pooled before CD34 isolation. CB CD34+ cells were enriched by positive selection using the EasySep™ CD34 enrichment kit, according to the manufacturer's instructions ([…] Technologies).
# Human CB CD34+-enriched cells (purity≥90%) were seeded in 24-well plates at 100 000 cells/mL in expansion medium consisting of Eave's basal medium (Iscove's modified Dulbecco's medium (IMDM), 20% BIT ([…] bovine serum albumin, 10 μg/mL bovine pancreatic insulin, 200 μg/mL human transferrin; […] Technologies), 0.1 mg/mL low-density lipoprotein ([…] Technologies), 50 μM 2-mercaptoethanol) supplemented with 20 ng/mL SCF (Peprotech) and 2 U/mL erythropoietin (EPO; Feldan Therapeutics). Cultures were maintained in a humidified atmosphere with 5% CO2 at 37° C. or 39° C., as indicated in the Examples. Cells were diluted at 300 000 cells/mL with fresh medium every 3 to 4 days.
# Cellular counts and viability were determined by adding Solution 18 (Acridine Orange and DAPI solution, ChemomMetec) and using NucleoCounter™ NC-250 for detection (ChemomMetec).
# For cells expanded in conditions favoring differentiation towards the erythroid lineage, surface markers were detected using the following antibodies: CD34-FITC, CD71-APC and CD235-PE. All antibodies were purchased from BD Biosciences, except for CD34-FITC which was purchased from Immunotech. 7AAD was used as a viability dye. All samples were analyzed on an Accuri™ C6 flow cytometer (BD Biosciences), and raw data were analyzed with FCS Express 5 Flow Research Edition software from at least 15 000 viable cell events acquired for each sample.
# Cellular counts and viability were determined as described in Example 6.5.
# [2] = system: CD34+ cells from human umbilical cord blood; assay: CD34+ cell culture and expansion while limiting differentiation (StemSpan ACF + CC110), flow cytometry; format: cell-based
# Protocol: CD34+ cells were isolated from human umbilical cord blood by positive selection according to standard procedures. Purified CD34+ cells from either single units or pooled from several units of cord blood were seeded in 1 mL of the appropriate culture medium in 24-well plates at a density of approximately 10^5 cells/mL. Cells were maintained at a density of 10^5-10^6 cells/mL throughout the culture by dilution and/or medium replacement.
# For CD34+ cell culture and expansion while limiting differentiation, cells were grown in StemSpan™-ACF medium ([…]™ Technologies) supplemented with StemSpan™ CC110 cytokine cocktail ([…]™ Technologies), and counted on days 4, 7, 10, 14, 17, and 21.
# Cell counts and viability were measured using the NucleoCounter NC-250™ Viability and Cell Count Assay system (ChemoMetec Inc., Davis, Calif.), according to the manufacturer's instructions.
# Cell phenotypes were determined by flow cytometry on the indicated days using the following panel of labeled primary antibodies: CD34-FITC, CD45RA-APC, CD41a-APC, CD42b-PE, and CD235-PE.
# CD34+ cells were isolated and cultured in a medium suitable for maintaining their self-renewal while limiting their differentiation into progenitors (StemSpan™ ACF supplemented with StemSpan™ CC110 cytokine cocktail, as described in Example 1.2).
# Cell phenotypic profiles of the expanded CD34+ cells were determined on days 4, 7, 10, 14, 17, and 21 by flow cytometry as described in Example 1.3.
# [3] = system: CD34+ cells from human umbilical cord blood; assay: CFU-MK assay (Megacult C) on cells grown in ACF + BS1; format: cell-based; settings: 39° C. + PIC 35 nM; FIG. 2
# Protocol: Aliquots of cells grown in StemSpan™ ACF+BS1 culture medium were collected on the indicated days, and CFU-MK were determined using the Megacult™ C kit from […]™ Technologies, according to the manufacturer's instructions.
# [4] = system: aryl hydrocarbon receptor (AhR) pathway; settings: Fares et al., 2014; cited from earlier work
smiles,measurement,setting,value
"Cl.Cn1nnc(-c2ccc3c(c2)[nH]c2nc(Cc4ccccc4)nc(N[C@H]4CC[C@H](N)CC4)c23)n1 [PIC, (1r,4r)-N1-(2-benzyl-7-(2-methyl-2H-tetrazol-5-yl)-9H-pyrimido[4,5-b]indol-4-yl)cyclohexane-1,4-diamine hydrochloride]",mild hyperthermia and PIC on expansion of CB CD34+ cells,"[1]; 39° C. + PIC 35 nM, erythroid differentiation medium, FIG. 12",additive effect
same,mild hyperthermia and PIC on expansion of CB CD34+/CD71+ cells (erythroid progenitors),"[1]; 39° C. + PIC 35 nM, erythroid differentiation medium, FIG. 13",additive effect
same,effect of addition of PIC on expansion of CD71+ erythroid precursors,"[1]; PIC 35 nM, 37° C. and 39° C., FIG. 10",decrease
same,effect of addition of PIC on total cell expansion,"[1]; PIC 35 nM, 37° C. and 39° C., FIG. 11",decrease
same,expansion of CD34+/CD45RA− LT-HSCs,"[2]; 39° C. + PIC 35 nM, FIG. 3B",potently enhanced
same,Percentage of cells bearing CD34+,"[2]; Day 4, 37° C. + PIC 35 nM",97.91%
same,Percentage of cells bearing CD34+/CD41+,"[2]; Day 4, 37° C. + PIC 35 nM",12.51%
same,Percentage of cells bearing CD34+/CD235+,"[2]; Day 4, 37° C. + PIC 35 nM",4.83%
same,Percentage of cells bearing CD41+,"[2]; Day 4, 37° C. + PIC 35 nM",12.53%
same,Percentage of cells bearing CD42+,"[2]; Day 4, 37° C. + PIC 35 nM",1.08%
same,Percentage of cells bearing CD45RA+,"[2]; Day 4, 37° C. + PIC 35 nM",65.34%
same,Percentage of cells bearing CD235+,"[2]; Day 4, 37° C. + PIC 35 nM",4.87%
same,Percentage of cells bearing CD34+,"[2]; Day 4, 39° C. + PIC 35 nM",94.74%
same,Percentage of cells bearing CD34+/CD41+,"[2]; Day 4, 39° C. + PIC 35 nM",8.37%
same,Percentage of cells bearing CD34+/CD235+,"[2]; Day 4, 39° C. + PIC 35 nM",3.65%
same,Percentage of cells bearing CD41+,"[2]; Day 4, 39° C. + PIC 35 nM",9.05%
same,Percentage of cells bearing CD42+,"[2]; Day 4, 39° C. + PIC 35 nM",2.21%
same,Percentage of cells bearing CD45RA+,"[2]; Day 4, 39° C. + PIC 35 nM",57.92%
same,Percentage of cells bearing CD235+,"[2]; Day 4, 39° C. + PIC 35 nM",4.11%
same,Percentage of cells bearing CD34+,"[2]; Day 7, 37° C. + PIC 35 nM",94.61%
same,Percentage of cells bearing CD34+/CD41+,"[2]; Day 7, 37° C. + PIC 35 nM",15.74%
same,Percentage of cells bearing CD34+/CD235+,"[2]; Day 7, 37° C. + PIC 35 nM",5.28%
same,Percentage of cells bearing CD41+,"[2]; Day 7, 37° C. + PIC 35 nM",15.93%
same,Percentage of cells bearing CD42+,"[2]; Day 7, 37° C. + PIC 35 nM",1.30%
same,Percentage of cells bearing CD45RA+,"[2]; Day 7, 37° C. + PIC 35 nM",80.07%
same,Percentage of cells bearing CD34+,"[2]; Day 7, 39° C. + PIC 35 nM",88.27%
same,Percentage of cells bearing CD34+/CD41+,"[2]; Day 7, 39° C. + PIC 35 nM",16.17%
same,Percentage of cells bearing CD34+/CD235+,"[2]; Day 7, 39° C. + PIC 35 nM",9.68%
same,Percentage of cells bearing CD41+,"[2]; Day 7, 39° C. + PIC 35 nM",18.12%
same,Percentage of cells bearing CD42+,"[2]; Day 7, 39° C. + PIC 35 nM",2.92%
same,Percentage of cells bearing CD45RA+,"[2]; Day 7, 39° C. + PIC 35 nM",74.14%
same,Percentage of cells bearing CD235+,"[2]; Day 7, 39° C. + PIC 35 nM",10.89%
same,Percentage of cells bearing CD34+,"[2]; Day 10, 37° C. + PIC 35 nM",84.26%
same,Percentage of cells bearing CD34+/CD41+,"[2]; Day 10, 37° C. + PIC 35 nM",12.94%
same,Percentage of cells bearing CD34+/CD235+,"[2]; Day 10, 37° C. + PIC 35 nM",2.16%
same,Percentage of cells bearing CD41+,"[2]; Day 10, 37° C. + PIC 35 nM",14.19%
same,Percentage of cells bearing CD42+,"[2]; Day 10, 37° C. + PIC 35 nM",0.48%
same,Percentage of cells bearing CD45RA+,"[2]; Day 10, 37° C. + PIC 35 nM",88.37%
same,Percentage of cells bearing CD235+,"[2]; Day 10, 37° C. + PIC 35 nM",2.33%
same,Percentage of cells bearing CD34+,"[2]; Day 10, 39° C. + PIC 35 nM",71.28%
same,Percentage of cells bearing CD34+/CD41+,"[2]; Day 10, 39° C. + PIC 35 nM",20.80%
same,Percentage of cells bearing CD34+/CD235+,"[2]; Day 10, 39° C. + PIC 35 nM",7.94%
same,Percentage of cells bearing CD41+,"[2]; Day 10, 39° C. + PIC 35 nM",27.40%
same,Percentage of cells bearing CD42+,"[2]; Day 10, 39° C. + PIC 35 nM",1.35%
same,Percentage of cells bearing CD45RA+,"[2]; Day 10, 39° C. + PIC 35 nM",82.34%
same,Percentage of cells bearing CD235+,"[2]; Day 10, 39° C. + PIC 35 nM",9.36%
same,Percentage of cells bearing CD34+,"[2]; Day 14, 37° C. + PIC 35 nM",58.28%
same,Percentage of cells bearing CD34+/CD41+,"[2]; Day 14, 37° C. + PIC 35 nM",9.55%
same,Percentage of cells bearing CD34+/CD45RA−,"[2]; Day 14, 37° C. + PIC 35 nM",15.22%
same,Percentage of cells bearing CD34+/CD235+,"[2]; Day 14, 37° C. + PIC 35 nM",1.39%
same,Percentage of cells bearing CD41+,"[2]; Day 14, 37° C. + PIC 35 nM",15.16%
same,Percentage of cells bearing CD42+,"[2]; Day 14, 37° C. + PIC 35 nM",0.19%
same,Percentage of cells bearing CD45RA+,"[2]; Day 14, 37° C. + PIC 35 nM",84.63%
same,Percentage of cells bearing CD235+,"[2]; Day 14, 37° C. + PIC 35 nM",2.10%
same,Percentage of cells bearing CD34+,"[2]; Day 14, 39° C. + PIC 35 nM",48.58%
same,Percentage of cells bearing CD34+/CD41+,"[2]; Day 14, 39° C. + PIC 35 nM",13.88%
same,Percentage of cells bearing CD34+/CD45RA−,"[2]; Day 14, 39° C. + PIC 35 nM",19.74%
same,Percentage of cells bearing CD34+/CD235+,"[2]; Day 14, 39° C. + PIC 35 nM",3.72%
same,Percentage of cells bearing CD41+,"[2]; Day 14, 39° C. + PIC 35 nM",32.04%
same,Percentage of cells bearing CD42+,"[2]; Day 14, 39° C. + PIC 35 nM",1.16%
same,Percentage of cells bearing CD45RA+,"[2]; Day 14, 39° C. + PIC 35 nM",81.97%
same,Percentage of cells bearing CD34+,"[2]; Day 17, 37° C. + PIC 35 nM",48.29%
same,Percentage of cells bearing CD34+/CD41+,"[2]; Day 17, 37° C. + PIC 35 nM",9.75%
same,Percentage of cells bearing CD34+/CD45RA−,"[2]; Day 17, 37° C. + PIC 35 nM",13.58%
same,Percentage of cells bearing CD34+/CD235+,"[2]; Day 17, 37° C. + PIC 35 nM",0.52%
same,Percentage of cells bearing CD41+,"[2]; Day 17, 37° C. + PIC 35 nM",24.70%
same,Percentage of cells bearing CD42+,"[2]; Day 17, 37° C. + PIC 35 nM",0.63%
same,Percentage of cells bearing CD45RA+,"[2]; Day 17, 37° C. + PIC 35 nM",87.89%
same,Percentage of cells bearing CD235+,"[2]; Day 17, 37° C. + PIC 35 nM",3.94%
same,differentiation of the cells towards the megakaryocytic and erythroid (CD235+) lineages,[2]; combined mild hyperthermia (39° C.) and PIC 35 nM,did not lead to an enhanced differentiation
same,combined effect of mild hyperthermia and PIC on the number of CFU-MK,[3],synergized
same,suppression of the aryl hydrocarbon receptor (AhR) pathway,[4],without acting as suppressors
